Experimental data from patent publication US12679878B2, “CRF2 receptor agonists and their use in therapy” (SANOFI, priority 2020, dated 2026).
Where two headings read alike, the source gives them in different places. Starred links: 1 amine or outer side, 2 acyl side, 3 side chain; linkers in the order of their positions; H or OH if unused. Non-standard residues stand in square brackets, D forms with d. Residues, ends and D or L forms follow the SMILES beside them. Groups on a side chain read outwards from the residue. *: point of attachment. C20 diacid = O=C(O)CCCCCCCCCCCCCCCCCCC(=O)*; C18 diacid = O=C(O)CCCCCCCCCCCCCCCCC(=O)*; γGlu = O=C(O)[C@H](CCC(=O)[*:2])N[*:1]; AEEA = NCCOCCOCC(=O)O; Aib = CC(C)(N)C(=O)O

Tests used:
Type in all cases: cell-based
human CRF2α receptor = target: T1, human CRF2α receptor (Homo sapiens, UniProt Q13324); test: cAMP agonism at human CRF2 α receptor in TeloHEAC cells (Example 7); conditions: cAMP HTRF, TeloHEAC cells stably expressing human CRF2 α
T1 construct: expressed in transfected cells; host or cells: TeloHEAC
T1 sequence (Q13324 1-411): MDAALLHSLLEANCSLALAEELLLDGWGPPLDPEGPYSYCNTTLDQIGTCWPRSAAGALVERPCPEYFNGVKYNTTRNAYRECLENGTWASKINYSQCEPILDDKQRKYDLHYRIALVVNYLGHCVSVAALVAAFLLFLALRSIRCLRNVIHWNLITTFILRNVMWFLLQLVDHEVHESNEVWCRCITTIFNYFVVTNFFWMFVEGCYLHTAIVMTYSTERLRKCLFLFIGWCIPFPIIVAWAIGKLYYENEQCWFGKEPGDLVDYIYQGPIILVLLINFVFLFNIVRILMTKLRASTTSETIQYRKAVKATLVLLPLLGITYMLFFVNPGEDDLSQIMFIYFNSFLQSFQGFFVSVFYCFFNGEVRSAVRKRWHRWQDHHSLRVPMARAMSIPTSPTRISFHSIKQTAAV
How it was run: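 Steps: thaw and wash cells; suspend in 1×HBSS, 20 mM HEPES, 0 or 0.1% HSA, 2 mM IBMX; add compound, 30 min RT; lyse with HTRF reagents, 1 h; read 665/620 nm. EC50 calculated, E% versus 1000 nM UCN2.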

rat CRF2R α receptor = test: cAMP agonism at rat CRF2R α receptor in A7R5 rat aortic smooth muscle cells (Example 8); conditions: cAMP HTRF, A7R5 rat aortic smooth muscle cell line, 0% HSA
How it was run: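 Potency (EC50) is the concentration reaching half-maximal activation, with responses scaled so that 1000 nM urocortin 2 equals 100%. Intracellular cAMP was quantified by homogeneous time-resolved fluorescence at 665/620 nm, 1 h after lysis-buffer reagents. Compound stimulation lasted 30 min at room temperature on 2000 IBMX-treated (2 mM) cells per well in HEPES-buffered HBSS.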

CRF1R receptor = target: T2, CRF1R receptor (Homo sapiens, UniProt P34998); test: cAMP activity at anti-target CRF1R, CRF1R-overexpression CHO cell line (Example 9); conditions: for EC50: 0% HSA
T2 construct: host or cells: CHO-K1 clone 2
T2 sequence (P34998 24-415): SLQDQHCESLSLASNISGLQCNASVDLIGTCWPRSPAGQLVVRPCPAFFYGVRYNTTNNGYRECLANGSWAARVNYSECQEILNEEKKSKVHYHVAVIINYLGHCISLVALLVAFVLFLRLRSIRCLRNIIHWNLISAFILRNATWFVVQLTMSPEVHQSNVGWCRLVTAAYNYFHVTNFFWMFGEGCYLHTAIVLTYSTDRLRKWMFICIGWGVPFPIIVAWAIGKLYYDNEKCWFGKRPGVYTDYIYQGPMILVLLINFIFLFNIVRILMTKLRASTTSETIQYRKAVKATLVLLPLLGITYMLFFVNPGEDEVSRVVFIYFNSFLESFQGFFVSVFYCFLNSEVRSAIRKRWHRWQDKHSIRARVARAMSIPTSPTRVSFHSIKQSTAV
How it was run: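 Using thawed CRF1R-overexpressing CHO cells at 2000 per well, compound is applied for 30 min at RT in HBSS/HEPES buffer with IBMX. Cellular cAMP content is determined via HTRF, and percent activity is calculated against 1000 nM UCN2 defined as 100%.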

[1] = 0% HSA, read-out: EC50 [nM], 0% HSA
[2] = CRF1R-overexpression CHO cell line
[3] = CRF1R-overexpression CHO cell line, read-out: Emax (%)
[4] = 0.1% HSA, read-out: EC50 [nM], 0.1% HSA

Structure (SMILES)	EC50 (human CRF2α receptor; [1]) [nM]	EC50 (rat CRF2R α receptor) [nM]	EC50 (CRF1R receptor; [2]) [nM]	Emax (CRF1R receptor; [3]) [%]	EC50 (human CRF2α receptor; [4]) [nM]	Emax (CRF1R receptor; CHO) [%]
CC[C@H](C)[C@H](NC(=O)[C@H](CCC(N)=O)NC(=O)[C@H](CCCCNC(=O)COCCOCCNC(=O)COCCOCCNC(=O)CC[C@H](NC(=O)CCCCCCCCCCCCCCCCC(=O)O)C(=O)O)NC(=O)[C@@H](NC(=O)[C@H](CCCCN)NC(=O)[C@@H](NC(=O)[C@@H]1CCCN1C(=O)[C@@H](NC(=O)[C@H](CC(=O)O)NC(=O)[C@H](CC(C)C)NC(=O)[C@H](CO)NC(=O)[C@H](CC(C)C)NC(=O)[C@@H](NC(=O)[C@@H](N)Cc1ccccc1)[C@@H](C)O)C(C)C)[C@@H](C)O)[C@@H](C)CC)C(=O)N[C@@H](CC(C)C)C(=O)N[C@@H](CC(C)C)C(=O)N[C@@H](CCCCN)C(=O)N[C@@H](CCC(N)=O)C(=O)N[C@@H](CCC(N)=O)C(=O)N[C@@H](CCCCN)C(=O)N[C@@H](CCC(N)=O)C(=O)N[C@@H](CCCCN)C(=O)N[C@@H](CCCCN)C(=O)N[C@@H](CCC(=O)O)C(=O)N[C@@H](CCCNC(=N)N)C(=O)N[C@@H](CCC(N)=O)C(=O)N[C@@H](CCC(N)=O)C(=O)N[C@@H](C)C(=O)N[C@@H](CCC(=O)O)C(=O)N[C@@H](CCCCN)C(=O)N[C@@H](CC(N)=O)C(=O)N[C@@H](CCCCN)C(=O)N[C@@H](CCC(N)=O)C(=O)N[C@@H](CC(C)C)C(=O)N[C@@H](CC(C)C)C(=O)N[C@@H](CCC(=O)O)C(=O)N[C@@H](CCCNC(=N)N)C(=O)N[C@H](C(N)=O)C(C)C [compound 52] (H-FTLSLDVPTKIK([AEEA-AEEA-γGlu-C18 diacid])QILLKQQKQKKERQQAEKNKQLLERV-NH2; N-terminus assumed)	0.7	0.76	> 1000	5.3	45.8	
CC[C@H](C)[C@H](NC(=O)[C@H](CCC(N)=O)NC(=O)[C@H](CCCCNC(=O)COCCOCCNC(=O)COCCOCCNC(=O)CC[C@H](NC(=O)CCCCCCCCCCCCCCCCC(=O)O)C(=O)O)NC(=O)[C@H](CC(C)C)NC(=O)[C@H](CCCCN)NC(=O)[C@@H](NC(=O)[C@@H]1CCCN1C(=O)[C@@H](NC(=O)[C@H](CC(=O)O)NC(=O)[C@H](CC(C)C)NC(=O)[C@H](CO)NC(=O)[C@H](CC(C)C)NC(=O)[C@@H](NC(=O)[C@@H](N)Cc1ccccc1)[C@@H](C)O)C(C)C)[C@@H](C)CC)C(=O)N[C@@H](CC(C)C)C(=O)N[C@@H](CC(C)C)C(=O)N[C@@H](CCCCN)C(=O)N[C@@H](CCC(N)=O)C(=O)N[C@@H](CCC(N)=O)C(=O)N[C@@H](CCCCN)C(=O)N[C@@H](CCC(N)=O)C(=O)N[C@@H](CCCCN)C(=O)N[C@@H](CCCCN)C(=O)N[C@@H](CCC(=O)O)C(=O)N[C@@H](CCCNC(=N)N)C(=O)N[C@@H](CCC(N)=O)C(=O)N[C@@H](CCC(N)=O)C(=O)N[C@@H](C)C(=O)N[C@@H](CCC(=O)O)C(=O)N[C@H](C(=O)N[C@@H](CC(N)=O)C(=O)N[C@H](C(=O)N[C@@H](CCC(N)=O)C(=O)N[C@@H](CC(C)C)C(=O)N[C@@H](CC(C)C)C(=O)N[C@@H](CCC(=O)O)C(=O)N[C@@H](CCCNC(=N)N)C(=O)N[C@H](C(N)=O)C(C)C)C(C)C)[C@@H](C)O [compound 54] (H-FTLSLDVPIKLK([AEEA-AEEA-γGlu-C18 diacid])QILLKQQKQKKERQQAETNVQLLERV-NH2)	0.57	1.51			24.5	2.72
CC[C@H](C)[C@H](NC(=O)[C@H](CCC(N)=O)NC(=O)[C@H](CCCCNC(=O)COCCOCCNC(=O)COCCOCCNC(=O)CC[C@H](NC(=O)CCCCCCCCCCCCCCCCCCC(=O)O)C(=O)O)NC(=O)[C@H](CC(C)C)NC(=O)[C@H](CCCCN)NC(=O)[C@@H](NC(=O)[C@@H]1CCCN1C(=O)[C@@H](NC(=O)[C@H](CC(=O)O)NC(=O)[C@H](CC(C)C)NC(=O)[C@H](CO)NC(=O)[C@H](CC(C)C)NC(=O)[C@@H](NC(=O)[C@@H](N)Cc1ccccc1)[C@@H](C)O)C(C)C)[C@@H](C)CC)C(=O)N[C@@H](CC(C)C)C(=O)N[C@@H](CC(C)C)C(=O)N[C@@H](CCCCN)C(=O)N[C@@H](CCC(N)=O)C(=O)N[C@@H](CCC(N)=O)C(=O)N[C@@H](CCCCN)C(=O)N[C@@H](CCC(N)=O)C(=O)N[C@@H](CCCCN)C(=O)N[C@@H](CCCCN)C(=O)N[C@@H](CCC(=O)O)C(=O)N[C@@H](CCCNC(=N)N)C(=O)N[C@@H](CCC(N)=O)C(=O)N[C@@H](CCC(N)=O)C(=O)N[C@@H](C)C(=O)N[C@@H](CCC(=O)O)C(=O)N[C@H](C(=O)N[C@@H](CC(N)=O)C(=O)N[C@H](C(=O)N[C@@H](CCC(N)=O)C(=O)N[C@@H](CC(C)C)C(=O)N[C@@H](CC(C)C)C(=O)N[C@@H](CCC(=O)O)C(=O)N[C@@H](CCCNC(=N)N)C(=O)N[C@H](C(N)=O)C(C)C)C(C)C)[C@@H](C)O [compound 62] (H-FTLSLDVPIKLK([AEEA-AEEA-γGlu-C20 diacid])QILLKQQKQKKERQQAETNVQLLERV-NH2)	0.8	2.9				2.28

Second part, led by results:

EC50 (human CRF2α receptor; [1]) [nM]	EC50 (rat CRF2R α receptor) [nM]	EC50 (CRF1R receptor; [2]) [nM]	Emax (CRF1R receptor; [3]) [%]	EC50 (human CRF2α receptor; [4]) [nM]	Structure (SMILES)	Emax (CRF1R receptor; CHO) [%]
0.52	8.97	> 1000	5.88		CC[C@H](C)[C@H](N)C(=O)N[C@H](C(=O)N[C@@H](CC(C)C)C(=O)N[C@@H](CO)C(=O)N[C@@H](CC(C)C)C(=O)N[C@@H](CC(=O)O)C(=O)N[C@H](C(=O)N1CCC[C@H]1C(=O)N[C@H](C(=O)N[C@@H](CCCCN)C(=O)N[C@@H](CC(C)C)C(=O)N[C@@H](CCCCNC(=O)COCCOCCNC(=O)COCCOCCNC(=O)CC[C@H](NC(=O)CCCCCCCCCCCCCCCCC(=O)O)C(=O)O)C(=O)N[C@@H](CCC(N)=O)C(=O)N[C@H](C(=O)N[C@@H](CC(C)C)C(=O)N[C@@H](CC(C)C)C(=O)N[C@@H](CCC(=O)O)C(=O)N[C@@H](CCC(N)=O)C(=O)N[C@@H](C)C(=O)N[C@@H](CCCCN)C(=O)N[C@@H](CCC(N)=O)C(=O)N[C@@H](CCCCN)C(=O)NC(C)(C)C(=O)N[C@@H](CC(C)C)C(=O)N[C@@H](CCCNC(=N)N)C(=O)N[C@@H](C)C(=O)N[C@@H](CCC(N)=O)C(=O)N[C@@H](C)C(=O)N[C@@H](CCC(=O)O)C(=O)N[C@H](C(=O)N[C@@H](CC(N)=O)C(=O)N[C@H](C(=O)N[C@@H](CCCNC(=N)N)C(=O)N[C@H](C(=O)N[C@@H](CC(C)C)C(=O)N[C@@H](CCC(=O)O)C(=O)N[C@@H](CCCNC(=N)N)C(=O)N[C@H](C(N)=O)C(C)C)[C@@H](C)CC)C(C)C)[C@@H](C)O)[C@@H](C)CC)[C@@H](C)CC)C(C)C)C(C)C [compound 46] (H-IVLSLDVPIKLK([AEEA-AEEA-γGlu-C18 diacid])QILLEQAKQK[Aib]LRAQAETNVRILERV-NH2; N-terminus assumed)	
1.01	1.32	> 1000	4.14	55.1	CC[C@H](C)[C@H](NC(=O)[C@H](CCC(N)=O)NC(=O)[C@H](CCCCNC(=O)COCCOCCNC(=O)COCCOCCNC(=O)CC[C@H](NC(=O)CCCCCCCCCCCCCCCCC(=O)O)C(=O)O)NC(=O)[C@@H](NC(=O)[C@H](CCCCN)NC(=O)[C@@H](NC(=O)[C@@H]1CCCN1C(=O)[C@@H](NC(=O)[C@H](CC(=O)O)NC(=O)[C@H](CC(C)C)NC(=O)[C@H](CO)NC(=O)[C@H](CC(C)C)NC(=O)[C@@H](NC(=O)[C@@H](N)Cc1ccccc1)[C@@H](C)O)C(C)C)[C@@H](C)O)[C@@H](C)CC)C(=O)N[C@@H](CC(C)C)C(=O)N[C@@H](CC(C)C)C(=O)N[C@@H](CCCCN)C(=O)N[C@@H](CCC(N)=O)C(=O)N[C@@H](CCC(N)=O)C(=O)N[C@@H](CCCCN)C(=O)N[C@@H](CCC(N)=O)C(=O)N[C@@H](CCCCN)C(=O)N[C@@H](CCCCN)C(=O)N[C@@H](CCC(=O)O)C(=O)N[C@@H](CCCNC(=N)N)C(=O)N[C@@H](CCC(N)=O)C(=O)N[C@@H](CCC(N)=O)C(=O)N[C@@H](C)C(=O)N[C@@H](CCC(=O)O)C(=O)N[C@H](C(=O)N[C@@H](CC(N)=O)C(=O)N[C@@H](CCCCN)C(=O)N[C@@H](CCC(N)=O)C(=O)N[C@@H](CC(C)C)C(=O)N[C@@H](CC(C)C)C(=O)N[C@@H](CCC(=O)O)C(=O)N[C@@H](CCCNC(=N)N)C(=O)N[C@H](C(N)=O)C(C)C)[C@@H](C)O [compound 53] (H-FTLSLDVPTKIK([AEEA-AEEA-γGlu-C18 diacid])QILLKQQKQKKERQQAETNKQLLERV-NH2)	
